Patent US20020051978A1, “Methods and compositions for the identification, assessment, prevention and therapy of human cancers” (priority 2000, published 2002)
Values joined by “and” are separate entries in the source; they are usually repeats but may differ in a detail not shown here. Equal values may be shown once. Read-outs that look alike come from different tables or passages of the source.

Key:
[1] = test system: 60 cancer cell lines (NCI 60 cancer cell line series); test: NCI-DTP in vitro cancer screen, sulforhodamine B (SRB) growth inhibition, 48 hour exposure; format: cell-based, human; design: key to sensitivity class Ovarian OVCAR-8 CL6005 / sensitivity class Ovarian SK-OV-3 CL6011 / sensitivity class Prostate DU-145 CL11003 / sensitivity class NSCLC NCI-H522 CL1003 / sensitivity class Ovarian IGROV1 CL6010 / sensitivity class Ovarian OVCAR-4 CL6002 / sensitivity class Prostate PC-3(I) CL11001 / sensitivity class Renal A498 CL9013 / sensitivity class Renal SN12C CL9008: sensitivity class: 1 = Low, 2 = Medium, 3 = High
Method: Cancer Cell Line Preparation. Sixty cancer cell lines were obtained from the National Cancer Institute Developmental Therapeutics Program (NCI-DTP). Procedures for growing cells and testing compounds have been described previously (Scudiero et al., Cancer Res. 1988, 48:4827-4833; Stinson et al., Anticancer Res.; Myers et al., Electrophoresis 1997, 18:647-653). Cells are plated on day 0 at a density individualized for each cell line so that they will generally be sub-confluent at the end of the assay period. On day 1, a compound is added in the format for a duplicate-well, 5-dose, ten-fold interval dose response study.
No-drug, no-cell and no-growth controls are included. On day 3 the cells are processed for staining with sulforhodamine B (SRB), which reflects the amount of cell mass present at the end of a 48 hour exposure to the test agent. From dose response curves based on the SRB data, various parameters can be determined. The one used in the present study is the G15o, defined as the concentration of compound required to inhibit growth of the cell line by 50%. More precisely, the quantity used in the calculation to be described is the potency measure -log{GI50}.
Activity database (A). Table IA, consisting of the growth inhibition (GI5o) values for the 60 cell lines and 24 compounds, was created from the NCI-DTP in vitro cancer screen database. This subset of compounds was selected from the larger 23,000 compound database available from the DTP. The compounds were selected on the basis of their known mechanism of action and chemical structure. The average potency—log{GI50} was extracted from the comma-delimited text files available through the Web at http://www.nci.nih.gov/intra/lmp/jnwbio.htmrl. Subsequently, these log{GI5o} values were inspected manually and classified as indicating either Low, Medium or High sensitivity to each compound.

[2] = test system: 60 cancer cell lines (NCI 60 cancer cell line series); conditions: cited from earlier work

Q: What does the source list for `CN(Cc1cnc2nc(N)nc(N)c2n1)c1ccc(C(=O)N[C@@H](CCC(=O)O)C(=O)O)cc1` [Methotrexate]?
A: classification of cell line as Low(1), Medium(2) or High(3) sensitivity to compound ([1]; Breast BT-549 (CL5013)): 1; classification of cell line as Low(1), Medium(2) or High(3) sensitivity to compound ([1]; Breast HS-578T CL5006): 1; classification of cell line as Low(1), Medium(2) or High(3) sensitivity to compound ([1]; Breast MCF7/ADRr (CL5002)): 2; classification of cell line as Low(1), Medium(2) or High(3) sensitivity to compound ([1]; Breast MDA-MB-231 CL5005): 1; classification of cell line as Low(1), Medium(2) or High(3) sensitivity to compound ([1]; Breast T-47D (CL5014)): 1; classification of cell line as Low(1), Medium(2) or High(3) sensitivity to compound ([1]; CNS SF-268 CL12014): 2; classification of cell line as Low(1), Medium(2) or High(3) sensitivity to compound ([1]; CNS SF-295 CL12015): 3; classification of cell line as Low(1), Medium(2) or High(3) sensitivity to compound ([1]; CNS SF-539 CL12016): 3; classification of cell line as Low(1), Medium(2) or High(3) sensitivity to compound ([1]; CNS U251(I) CL12009): 2; classification of cell line as Low(1), Medium(2) or High(3) sensitivity to compound ([1]; Colon COLO-250 CL4010): 2; classification of cell line as Low(1), Medium(2) or High(3) sensitivity to compound ([1]; Colon HCC-2998 (CL4002)): 2; classification of cell line as Low(1), Medium(2) or High(3) sensitivity to compound ([1]; Colon HCT-15 CL4015): 3; classification of cell line as Low(1), Medium(2) or High(3) sensitivity to compound ([1]; Colon HCT-116 (CL4003)): 3; classification of cell line as Low(1), Medium(2) or High(3) sensitivity to compound ([1]; Colon KM12 (CL4017)): 2; classification of cell line as Low(1), Medium(2) or High(3) sensitivity to compound ([1]; Leukemia HL-60(I) (CL7008)): 2; classification of cell line as Low(1), Medium(2) or High(3) sensitivity to compound ([1]; Leukemia K562(I) CL7005): 3; classification of cell line as Low(1), Medium(2) or High(3) sensitivity to compound ([1]; Leukemia RPMI-8226(I) (CL7010)): 2; classification of cell line as Low(1), Medium(2) or High(3) sensitivity to compound ([1]; Melanoma LOX IMVI CL10001): 3; classification of cell line as Low(1), Medium(2) or High(3) sensitivity to compound ([1]; Melanoma SK-MEL-2 (CL10005)): 1; classification of cell line as Low(1), Medium(2) or High(3) sensitivity to compound ([1]; Melanoma SK-MEL-5 (CL10007)): 2; classification of cell line as Low(1), Medium(2) or High(3) sensitivity to compound ([1]; Melanoma SK-MEL-28 (CL10008)): 1; classification of cell line as Low(1), Medium(2) or High(3) sensitivity to compound ([1]; Melanoma UACC-62 (CL10020)): 3; classification of cell line as Low(1), Medium(2) or High(3) sensitivity to compound ([1]; NSCLC A549/ATCC (CL1004)): 3; classification of cell line as Low(1), Medium(2) or High(3) sensitivity to compound ([1]; NSCLC EKVX (CL1008)): 1; classification of cell line as Low(1), Medium(2) or High(3) sensitivity to compound ([1]; NSCLC HOP-62 (CL1026)): 2; classification of cell line as Low(1), Medium(2) or High(3) sensitivity to compound ([1]; NSCLC HOP-92 (CL1029)): 1; classification of cell line as Low(1), Medium(2) or High(3) sensitivity to compound ([1]; NSCLC NCI-H226 CL1013): 1; sensitivity class NSCLC NCI-H23(I) CL1001 ([1]; cell line NSCLC NCI-H23(I), CL1001): 2; sensitivity class NSCLC NCI-H332M CL1017 ([1]; cell line NSCLC NCI-H332M, CL1017): 2; sensitivity class NSCLC NCI-H460 CL1021 ([1]; cell line NSCLC NCI-H460, CL1021): 3; sensitivity class Ovarian IGROV1 CL6010 ([1]; cell line Ovarian IGROV1, CL6010): 2; sensitivity class Ovarian OVCAR-3 CL6001 ([1]; cell line Ovarian OVCAR-3, CL6001): 2; sensitivity class Ovarian OVCAR-4 CL6002 ([1]; cell line Ovarian OVCAR-4, CL6002): 1; sensitivity class Ovarian OVCAR-5 CL6003 ([1]; cell line Ovarian OVCAR-5, CL6003): 2; sensitivity class Prostate DU-145 CL11003 ([1]; cell line Prostate DU-145, CL11003): 2; sensitivity class Renal A498 CL9013 ([1]; cell line Renal A498, CL9013): 1; sensitivity class Renal ACHN CL9023 ([1]; cell line Renal ACHN, CL9023): 2; sensitivity class Renal RXF-393 CL9016 ([1]; cell line Renal RXF-393, CL9016): 1; sensitivity class Renal SN12C CL9008 ([1]; cell line Renal SN12C, CL9008): 3; sensitivity class Renal TK10 CL9024 ([1]; cell line Renal TK10, CL9024): 1; sensitivity class Renal UO-31 CL9004 ([1]; cell line Renal UO-31, CL9004): 2; -Log (GI50) ([2]; Breast MCF7/ADRr (CL5002)): 7.3 and 7.0; -Log (GI50) ([2]; CNS SF-268 CL12014): 7.5 and 7.3; -Log (GI50) ([2]; Colon COLO-250 CL4010): 6.2 and 6.0; -Log (GI50) ([2]; Colon HCC-2998 (CL4002)): 7.0 and 6.9; -Log (GI50) ([2]; Colon HT29(I) CL4001): 7.7 and 7.5; -Log (GI50) ([2]; Colon KM12 (CL4017)): 7.4 and 7.3; -Log (GI50) ([2]; Colon SW-620 (CL4009)): 7.2 and 7.5; -Log (GI50) ([2]; Leukemia CCRF-CEM(I) (CL7003)): 7.4 and 7.5; -Log (GI50) ([2]; Leukemia HL-60(I) (CL7008)): 7.4; -Log (GI50) ([2]; Leukemia MOLT-4 (CL7006)): 7.6 and 7.5; -Log (GI50) ([2]; Leukemia RPMI-8226(I) (CL7010)): 6.9 and 7.1; -Log (GI50) ([2]; Melanoma M14 (CL10014)): 7.5; -Log (GI50) ([2]; Melanoma MALME-3M CL10002): 5.4 and 5.5; -Log (GI50) ([2]; Melanoma SK-MEL-5 (CL10007)): 7.2 and 7.0; -Log (GI50) ([2]; Melanoma SK-MEL-28 (CL10008)): 5.3 and 5.4; -Log (GI50) ([2]; NSCLC EKVX (CL1008)): 5.0; -Log (GI50) ([2]; NSCLC HOP-92 (CL1029)): 5.1; -Log (GI50) ([2]; NSCLC NCI-H332M CL1017): 6.4 and 6.3; -Log (GI50) ([2]; Prostate DU-145 CL11003): 7.6 and 7.3; -Log (GI50) ([2]; Renal 786-O CL9018): 7.5
